Results: patent US12534451B2, “Small molecule modulators of PanK” (St. Jude Children's Research Hospital, priority 2019, dated 2026)

biological target: human PANK3 (Homo sapiens (Human), UniProt Q9H999); assay: PANK activity assay (radiochemical, D-[1-14C]pantothenate); format: biochemical; details: 5 nM human PANK3, 2.5 mM ATP, 45 μM pantothenate, 10 min at 37° C.; average ± data range
Method: The PanK activity and Surface Plasmon Resonance assays were conducted as explained in the literature.
If the IC^50 was determined to be in the nM range then the assay was repeated in the presence of 0-1 μM or 0-0.1 μM compound to more precisely determine the IC^50. All the experiments were repeated twice in duplicate and the data were an average ±data range.
The experiments mimicking the mixture of ligands present in vivo were performed under different conditions. […] The IC^50 values for the structure-activity study were calculated by fitting the inhibition data to a one-site model of the Michaelis-Menten equation. […] Thus, the data were fit to Morrison's quadratic equation (GraphPad software) that accounts for the impact of enzyme inhibitor binding on the free concentration of inhibitor.

Sequence of human PANK3 (Q9H999 whole entry): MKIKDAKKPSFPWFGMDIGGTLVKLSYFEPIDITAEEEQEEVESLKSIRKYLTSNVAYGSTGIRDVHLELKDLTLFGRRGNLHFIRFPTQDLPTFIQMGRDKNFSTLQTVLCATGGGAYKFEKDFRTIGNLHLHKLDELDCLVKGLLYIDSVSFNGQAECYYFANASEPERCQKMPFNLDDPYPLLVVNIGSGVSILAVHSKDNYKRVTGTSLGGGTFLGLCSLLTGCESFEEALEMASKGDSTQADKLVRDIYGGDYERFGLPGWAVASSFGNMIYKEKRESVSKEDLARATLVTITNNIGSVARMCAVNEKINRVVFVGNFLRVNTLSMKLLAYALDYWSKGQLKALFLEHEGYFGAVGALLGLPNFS

SMILES | IC50
CN(C)c1ccc(CC(=O)N2CCN(c3nc4c(F)cc(F)cc4s3)CC2)cc1 [Lee-4296] | 25 ± 1.6 nM
C[C@@H]1CN(c2ccc(Cl)nn2)CCN1C(=O)Cc1ccc(N(C)C)cc1 [PZ-4112] | 39.7 ± 4.7 nM
CS(=O)(=O)Nc1ccc(CC(=O)N2CCN(c3ccc(Cl)nn3)CC2)cc1 [PZ-4140, N-(4-(2-(4-(6-chloropyridazin-3-yl)piperazin-1-yl)-2-oxoethyl)phenyl)methanesulfonamide] | 3.8 ± 0.1 nM
CN(c1ccc(CC(=O)N2CCN(c3ccc(Cl)nn3)CC2)cc1)S(C)(=O)=O [PZ-4200] | 120 ± 11.2 nM
CCS(=O)(=O)Nc1ccc(CC(=O)N2CCN(c3ccc(C#N)nn3)CC2)cc1 [PZ-4215] | 4 ± 0.3 nM
N#Cc1cnc(N2CCN(C(=O)Cc3ccc(C4CC4)cc3)CC2)cn1 [PZ-4284] | 27 ± 4 nM
O=C(Cc1ccc(C2CC2)cc1)N1CCN(c2nc3ccccc3s2)CC1 [PZ-4285] | 26 ± 3 nM
CN(C)c1ccc(CC(=O)N2CCN(c3nc4ccccc4s3)CC2)cc1 [PZ-4290] | 370 ± 47 nM
O=C(Cc1ccc(C2CC2)cc1)N1CCN(c2nc3ccccc3o2)CC1 [PZ-4305] | 173 ± 48.5 nM
O=C(Cc1ccc(C2CC2)c(F)c1)N1CCN(c2nc3cccnc3o2)CC1 [PZ-4343] | 49 ± 3 nM
O=C(Cc1ccc(C2CC2)cc1F)N1CCN(c2nc3cccnc3o2)CC1 [PZ-4344] | 7.6 ± 0.48 nM
O=C(Cc1ccc(C2CC2)c(F)c1)N1CCN(c2nc3ncccc3o2)CC1 [PZ-4348] | 5.7 ± 0.49 nM
O=C(Cc1ccc(C2CC2)cc1)N1CCN(c2nc3ncc(Cl)cc3o2)CC1 [PZ-4359] | 1.23 ± 0.17 nM
O=C(Cc1ccc(C2CC2)c(F)c1)N1CCN(c2nc3ncc(Cl)cc3o2)CC1 [PZ-4360] | 5.6 ± 0.88 nM
O=C(Cc1ccc(C2CC2)cc1F)N1CCN(c2nc3ncc(Cl)cc3o2)CC1 [PZ-4361] | 0.81 ± 0.15 nM
O=C(Cc1ccc(Cl)cc1)N1CCN(c2nc3ncc(F)cc3o2)CC1 [PZ-4363] | 37.5 ± 2.4 nM

SMILES | IC50
O=C(Cc1ccc(C2CC2)cc1F)N1CCN(c2nc3ccc(F)cc3o2)CC1 [PZ-4383] | 3.4 ± 0.33 nM
O=C(Cc1ccc(C2CC2)cc1)N1CCN(c2nc3cc(F)cnc3o2)CC1 [PZ-4386] | 2.1 ± 0.21 nM
CC(C)c1ccc(CC(=O)N2CCN(c3nc4cccnc4s3)CC2)cc1 [PZ-4432] | 3.95 ± 0.26 nM
O=C(Nc1ccc(C2CC2)cc1F)N1CCN(c2nc3c(F)cc(F)cc3s2)CC1 [PZ-4433] | 1.79 ± 0.09 nM
CC(C)c1ccc(NC(=O)N2CCN(c3nc4c(F)cc(F)cc4s3)CC2)cc1 [PZ-4434] | 1.04 ± 0.06 nM
CC(C)c1ccc(CC(=O)N2CCN(c3nc4ncc(F)cc4o3)CC2)cc1 [PZ-4435] | 0.33 ± 0.02 nM
O=C(Oc1ccc(C2CC2)cc1)N1CCN(c2nc3ncc(F)cc3o2)CC1 [PZ-4436] | 2 ± 0.18 nM
CN(C)c1ccc(CC(=O)N2CCN(c3nc4ncc(F)cc4o3)CC2)cc1 [PZ-4467] | 2.62 ± 0.18 nM
CC(C)c1ccc(CC(=O)NCC2(CCl)CN(c3ccc(Cl)nn3)C2)cc1 [PZ-4468] | 1.2 ± 0.13 nM
O=C(Cc1ccc(C2CC2)cc1)NCC1(CCl)CN(c2ccc(Cl)nn2)C1 [PZ-4469, N-((3-(chloromethyl)-1-(6-chloropyridazin-3-yl)azetidin-3-yl)methyl)-2-(4-cyclopropylphenyl)acetamide] | 5.4 ± 0.42 nM
C[C@@H]1CN(c2nc3cc(F)cnc3o2)CCN1C(=O)Cc1ccc(C2CC2)cc1 [PZ-4470] | 3.88 ± 0.24 nM
C[C@H]1CN(C(=O)Cc2ccc(C3CC3)cc2)CCN1c1nc2cc(F)cnc2o1 [PZ-4474] | 1.37 ± 0.14 nM
CC(C)c1ccc(CC(=O)N2CCN(c3nc4cc(F)cnc4o3)[C@@H](C)C2)cc1 [PZ-4475] | 0.76 ± 0.05 nM
CC(C)c1ccc(CC(=O)N2CCN(c3ncc4ccsc4n3)CC2)cc1 [PZ-4478] | 125 ± 19.2 nM
CC(=O)OCC1(CNC(=O)Cc2ccc(C3CC3)cc2)CN(c2ccc(Cl)nn2)C1 [PZ-4510] | 1110 ± 852 nM
O=C(Cc1ccc(C2CC2)cc1)NCC1(CO)CN(c2ccc(Cl)nn2)C1 [PZ-4511, N-((1-(6-chloropyridazin-3-yl)-3-(hydroxymethyl)azetidin-3-yl)methyl)-2-(4-cyclopropylphenyl)acetamide] | 606 ± 237 nM

More lines, now with the values ahead:

IC50 | SMILES
987 ± 476 nM | O=C(Cc1ccc(C2CC2)cc1)N1CCN(c2nc3ccccc3[nH]2)CC1 [PZ-4312]
713 ± 294 nM | O=C(Cc1ccc(C2CC2)cc1)N1CCN(c2ncc3ccsc3n2)CC1 [PZ-4479]
440 ± 45 nM | CN(C)c1ccc(CC(=O)N2CCN(c3ccc(C#N)nn3)CC2)cn1 [PZ-4069, 6-(4-(2-(6-(dimethylamino)pyridin-3-yl)acetyl)piperazin-1-yl)pyridazine-3-carbonitrile]
391 ± 129 nM | CN(C)c1ccc(CC(=O)N2CCN(c3nc4cccnc4s3)CC2)cc1 [PZ-4317]
346 ± 100 nM | CN(C)c1ccc(CC(=O)N2CCN(c3nc4cccnc4o3)CC2)cc1 [PZ-4319]
183 ± 71 nM | CN(C)c1ccc(CC(=O)N2CCN(c3nc4c(F)cccc4s3)CC2)cc1 [PZ-4318]
77.3 ± 8.2 nM | Cc1ccc2oc(N3CCN(C(=O)Cc4ccc(C5CC5)cc4)CC3)nc2n1 [PZ-4364]
65 ± 9.8 nM | CC(=O)Nc1ccc(CC(=O)N2CCN(c3ccc(C#N)nn3)CC2)cc1 [PZ-4070, N-(4-(2-(4-(6-cyanopyridazin-3-yl)piperazin-1-yl)-2-oxoethyl)phenyl)acetamide]
54 ± 6.4 nM | O=C(Cc1ccc(C2CC2)cc1)N1CCN(c2nc3cc(F)ccc3o2)CC1 [PZ-4303]
21.8 ± 1.78 nM | O=C(Cc1ccc(C2CC2)cc1)NCC1(CCl)CN(c2nc3cc(F)cnc3o2)C1 [PZ-4472]
11.1 ± 0.7 nM | C[C@H]1CN(c2ccc(Cl)nn2)CCN1C(=O)Cc1ccc(N(C)C)cc1 [PZ-4111]
10.3 ± 0.55 nM | O=C(Cc1ccc(C2CC2)cc1)N1CCN(c2nc3cc(F)cnc3o2)CC1 [PZ-4463]
9.9 ± 1.6 nM | CS(=O)(=O)Nc1ccc(CC(=O)N2CCN(c3nc4cccnc4o3)CC2)cc1 [PZ-4323]
7.51 ± 0.62 nM | CC(C)c1ccc(CC(=O)NCC2(CCl)CN(c3nc4cc(F)cnc4o3)C2)cc1 [PZ-4473]
5.67 ± 0.39 nM | CS(=O)(=O)Nc1ccc(CC(=O)N2CCN(c3nc4cccnc4s3)CC2)cc1 [PZ-4321]
2.1 ± 0.26 nM | O=C(Cc1ccc(C2CC2)cc1F)N1CCN(c2nc3ncccc3o2)CC1 [PZ-4349]
1.95 ± 0.25 nM | CS(=O)(=O)Nc1ccc(CC(=O)N2CCN(c3nc4ncc(F)cc4o3)CC2)cc1 [PZ-4357]
1.37 ± 0.16 nM | CC(C)c1ccc(CC(=O)N2CCN(c3nc4cc(F)cnc4o3)CC2)cc1 [PZ-4462]
1.1 ± 0.12 nM | O=C(Cc1ccc(C2CC2)cc1)N1CCN(c2nc3ncc(F)cc3o2)CC1 [PZ-4350, 2-(4-cyclopropylphenyl)-1-(4-(6-fluorooxazolo[4,5-b]pyridin-2-yl)piperazin-1-yl)ethenone]
0.88 ± 0.09 nM | CC(C)c1ccc(CC(=O)N2CCN(c3nc4cc(F)cnc4o3)C[C@H]2C)cc1 [PZ-4471]
0.86 ± 0.078 nM | O=C(Cc1ccc(C2CC2)cc1F)N1CCN(c2nc3ncc(F)cc3o2)CC1 [PZ-4352]

system: Human C3A [HepG2/C3A] cells; assay: Cellular total CoA determination in C3A cells; format: cell-based; details: 24 hrs of treatment
Method: Human C3A [HepG2/C3A, derivative of HepG2] cells (ATCC #CRL-10741) were purchased from ATCC® and maintained in Eagle's minimum Essential medium (ATCC) supplemented with 2 mM glutamine, 10% fetal bovine serum (FCS, Altanta Biologicals), 50 U/ml penicillin and […] streptomycin. The C3A cell line was confirmed to be mycoplasma-free. Test compounds or vehicle control (DMSO) was added and after 24 hrs of treatment the cells were washed with PBS and harvested and subjected to total CoA determination.
Cultured cells were resuspended in 2 ml cold water to which 500 μl of 0.25M KOH was added, derivatized with monobromobimane (mBBr, Life technologies) and quantified by HPLC. 30 mg of frozen tissue is homogenized in 2 ml of 1 mM KOH and then derivatized with mBBr. The mBBr derivatized samples were fractionated by reverse-phase HPLC using a Gemini C18 3 μm column (150×4.60 mm) from Phenomenex. The chromatography system was a Waters e2695 separation module with a UV/Vis and fluorescence detector and controlled by Empower 3 software. Solvent A was 50 mM potassium phosphate pH 4.6, and solvent B was 100% acetonitrile. Twenty microliters of sample was injected onto the column, and the flow rate was 0.5 ml/min. The HPLC program was the following: starting solvent mixture of 90% A/10% B, 0-2 min isocratic with 10% B, 2-6 min linear gradient from 10% B to 15% B, 6-18 min concave gradient from 15% B to 40% B, 18-23 min isocratic with 40% B, 23-25 min linear gradient from 40 to 10%, and 25-30 min isocratic with 10% B. The UV/vis detector was set at 393 nm, and the fluorescence detector was set with excitation at 393 nm and emission at 470 nm. The elution position of the mBBr-CoA, was determined by comparison with mBBr-CoA prepared from commercial CoA (Avanti Polar Lipids). The areas under the mBBr-derivatized CoA was integrated and compared to known concentrations of the mBBr-CoA standard.

SMILES | C3A CoA% elevation
CN(C)c1ccc(CC(=O)N2CCN(c3nc4c(F)cc(F)cc4s3)CC2)cc1 [Lee-4296] | 198.6%
CN(C)c1ccc(CC(=O)N2CCN(c3ccc(C#N)nn3)CC2)cc1 [PZ-4060, 6-(4-(2-(4-(dimethylamino)phenyl)acetyl)piperazin-1-yl)pyridazine-3-carbonitrile] | 230.5%
CN(C)c1ccc(CC(=O)N2CCN(c3ccc(Cl)nn3)CC2)cc1 [PZ-4061, 1-(4-(6-chloropyridazin-3-yl)piperazin-1-yl)-2-(4-(dimethylamino)phenyl)ethanone] | 418.7%
CC(=O)Nc1ccc(CC(=O)N2CCN(c3ccc(Cl)nn3)CC2)cc1 [PZ-4071, N-(4-(2-(4-(6-chloropyridazin-3-yl)piperazin-1-yl)-2-oxoethyl)phenyl)acetamide] | 185.3%
CS(=O)(=O)Nc1ccc(CC(=O)N2CCN(c3ccc(Cl)nn3)CC2)cc1 [PZ-4140, N-(4-(2-(4-(6-chloropyridazin-3-yl)piperazin-1-yl)-2-oxoethyl)phenyl)methanesulfonamide] | 64.4%
CS(=O)(=O)Nc1ccc(CC(=O)N2CCN(c3ccc(C#N)nn3)CC2)cc1 [PZ-4202] | 183.3%
CCS(=O)(=O)Nc1ccc(CC(=O)N2CCN(c3ccc(C#N)nn3)CC2)cc1 [PZ-4215] | 160.9%
CCS(=O)(=O)Nc1ccc(CC(=O)N2CCN(c3ccc(Cl)nn3)CC2)cc1 [PZ-4216] | 54.9%
O=C(Cc1ccc(C2CC2)cc1)N1CCN(c2ccc(C(F)(F)F)nn2)CC1 [PZ-4283, 2-(4-cyclopropylphenyl)-1-(4-(6-(trifluoromethyl)pyridazin-3-yl)piperazin-1-yl)ethanone] | 218.2%
N#Cc1cnc(N2CCN(C(=O)Cc3ccc(C4CC4)cc3)CC2)cn1 [PZ-4284] | 448.2%
O=C(Cc1ccc(C2CC2)cc1)N1CCN(c2nc3ccccc3s2)CC1 [PZ-4285] | 223.7%
CS(=O)(=O)Nc1ccc(CC(=O)N2CCN(c3ccc(C(F)(F)F)nn3)CC2)cc1 [PZ-4295] | 140.8%
